According to US20050171194A1, “Enlargement of mucocutaneous or cutaneous organs and sites with topical compositions” (priority 2003, published 2005):
Where “and” joins values, the source holds several entries; their conditions need not be identical. Equal values may be shown once. Read-outs that look alike come from different tables or passages of the source.

Legend:
[1] = test system: forearm skin; assay: Forearm skin thickness measured by micrometer calipers after topical application; type: in vivo, human; settings: for % Increase Over (summary of increased skin thickness): 10-35% concentration twice daily on forearm skin, range over 2-13 subjects
From the text: Measuring the increase in thickness of the skin was accomplished in accordance with the following procedures. The increased plumpness or skin thickness by topical application of active ingredients of the embodiments is mainly due to increased biosynthesis of dermal components in the skin. The three most important dermal components are glycosaminoglycans (GAGs), collagens and elastic fibers. The increased skin thickness caused by increased biosynthesis of dermal components can be distinguished from that by water retention or edema formation. In the former case, the skin remains thickened for weeks and months after termination of topical application. In the latter case, the increased skin thickness returns to the original skin thickness within days after termination of topical application. • (1) Forearm Skin
The most convenient body area for testing skin thickness is the forearm skin. For example, a test substance in a formulation was topically applied once or twice daily to left or right forearm for 3 to 6 months and the other forearm was untreated or treated with a vehicle control. The skin plumpness or thickness was measured by micrometer calipers as follows. The skin was grasped with a 2×6 cm hinge plate, the internal faces of the hinge were coated with soft cloth to prevent slippage, and manually squeezed to a threshold point when the subject felt tight. Combined skin thickness of two whole-skin layers including thickness of the two hinge leaves was measured with micrometer calipers. Thickness of the two hinge leaves was subtracted to determine the actual thickness of two whole-skin layers. Triplicate measurements on treated site were done and an average number was used for calculation of the skin thickness. […]
Hydroxycarboxylic acids, N-acyl-aldosamines, N-acylamino acids and related compounds at various concentrations were topically applied to forearms of volunteer subjects or patients. As shown in Tables 1-7, the skin plumpness or thickness was increased substantially by the compounds of the present invention. The increased skin thickness was believed to be due to increased biosynthesis of GAGs, collagen and elastic fibers. […]. From the above test results, hydroxycarboxylic acids, N-acyl-aldosamines, N-acylamino acids and related compounds used alone or in combination should be beneficial to plump and pout lips, enhance and firm eyelids, enlarge and augment breasts, elongate and expand penis.
In one of the studies, skin thickness was measured by micrometer calipers as follows: The skin was grasped with a 2×6 cm metal hinge; the internal faces of which were coated with emery cloth to prevent slippage, and manually squeezed to threshold subject discomfort. Combined thickness of two whole-skin layers including thickness of the two hinge leaves was measured with micrometer calipers. Thickness of the two hinge leaves was subtracted to determine the actual thickness of two whole-skin layers. Triplicate measurements on treated sites were conducted and an average number was used for calculation of the skin thickness.

[2] = test system: eyelids, lips, skin; assay: Plumping or firming of eyelids, lips and skin, clinical and photographic evaluation; type: in vivo, human
Experimental: Standard photographs were taken before and after topical applications of test formulations. Plumping or firming effect was determined by clinical as well as photographic evaluation. It was discovered that hydroxycarboxylic acids, N-acyl-aldosamines, N-acylamino acids and related compounds had substantial effect on plumping or firming the eyelids. Aside from clinical as well as photographic evaluation, eyelids plumping or firming also was determined from the disappearance of certain skin lines on the eyelids skin. When eyelids skin was plumping up, the eyelids skin firmed up or pulled up, and the skin lines became less apparent or disappeared. Therefore, when the skin lines on the eyelids disappeared after topical application of a test formulation, the test substance was judged to have plumping or firming effect on the eyelids. It also was discovered that hydroxycarboxylic acids, N-acyl-aldosamines, N-acylamino acids and related compounds on topical application had firming or plumping up effects on the eyelids skin. […] Increased fullness, volume, contour or the effect of enlarging, expanding, augmenting, enhancing, firming, pouting, plumping or elongating after topical application was measured or determined by clinical as well as photographic evaluations. One of the measurements for breast enlargement or augmentation was by the size of brassiere cup. After topical application of the active ingredient, the subject would feel fullness or greater tightness of their treated breast with increased volume and contour, and there was a need to change and increase the size of the brassiere cup. Thus the enlargement or augmentation of the breast was determined by clinical as well as the increased size of brassiere cup. The plumping, pouting or firming effects on lips and eyelids by topical application of an hydroxycarboxylic acid, N-acyl-aldosamine, N-acylamino acid or related compound was determined by clinical as well as photographic evaluation. The elongation or expanding effect of penis was determined by direct measurement of penis before and after once or twice daily topical application of an hydroxycarboxylic acid, N-acyl-aldosamine, N-acylamino acid or related compound. • (C) Antioxidants

[3] = Antioxidant screen tests: air oxidation of anthralin and hydroquinone
From the text: (§1) An antioxidant can be defined as a substance capable of preventing or inhibiting oxidation. The antioxidant property can be readily determined by using any one of the following test methods: prevention or retardation of air oxidation of (a) anthralin, (b) hydroquinone, or (c) banana peel. A freshly prepared anthralin solution or cream is bright yellow, and an air oxidized one is brownish or black. A hydroquinone solution or cream is colorless or white color, and an air oxidized one is brownish or black. A freshly peeled banana peel is light yellow in color and an oxidized one ranges in color from tan, dark tan, brown to brownish black.

[4] = test system: breasts; assay: Breast enlargement after topical application, clinical evaluation and brassiere cup; type: in vivo, human
Experimental: A test formulation containing a hydroxycarboxylic acid, N-acyl-aldosamine, N-acylamino acid or related compound was topically applied once or twice daily to skin or mucus membrane organs or sites such as lips, eyelids, breasts and penis for one to six months. Increased fullness, volume, contour or the effect of enlarging, expanding, augmenting, enhancing, firming, pouting, plumping or elongating after topical application was measured or determined by clinical as well as photographic evaluations. One of the measurements for breast enlargement or augmentation was by the size of brassiere cup. After topical application of the active ingredient, the subject would feel fullness or greater tightness of their treated breast with increased volume and contour, and there was a need to change and increase the size of the brassiere cup. Thus the enlargement or augmentation of the breast was determined by clinical as well as the increased size of brassiere cup.
A subject, applied topically twice daily gluconolactone 15% lotion to their right breast for 3 months. […] At this time, they began treating both breasts. […]

[5] = Banana peel air oxidation test (antioxidant property); settings: 0.1 M, 5 ml, room temperature
From the text: as §1

[6] = test system: penis; assay: Direct augmentation of penis, penile circumference by tape measure; type: in vivo, human; settings: 20% solution two to three times daily for six weeks, person
Experimental: The plumping, pouting or firming effects on lips and eyelids by topical application of an hydroxycarboxylic acid, N-acyl-aldosamine, N-acylamino acid or related compound was determined by clinical as well as photographic evaluation. The elongation or expanding effect of penis was determined by direct measurement of penis before and after once or twice daily topical application of an hydroxycarboxylic acid, N-acyl-aldosamine, N-acylamino acid or related compound. • (C) Antioxidants
One test on direct augmentation of penis was carried out as follows. Lactobionic acid 20% solution was prepared by dissolving lactobionic acid 20 g in water 50 ml and propylene glycol 30 ml. A subject, volunteered to test an active ingredient of the present invention to enhance penile enlargement. Each morning for one week prior to treatment penile circumference was measured. Measurements were made with a cloth tailor's tape measure. Penile circumference of the glans region, which included the covering foreskin, ranged from 9.5 cm to 10.5 cm. The above lactobionic acid 20% solution was topically applied two to three times daily on the glans penis including the covering foreskin region for six weeks. Morning measurements were again made daily for one week after treatment was stopped. Penile circumference ranged from 11.5 cm to 13 cm after six weeks of topical treatment with 20% lactobionic acid solution.

[7] = 14% cream twice daily, person, after two months
[8] = anthralin, hydroquinone or banana peel air oxidation

Compound: CCC(=O)N[C@H]1C(O)O[C@H](CO)[C@@H](O)[C@@H]1O (stereo partly drawn) [N-Propanoyl-D-glucosamine]
- appearance of treated forearm skin when lifted ([1]; 10% solution twice daily, at the end of treatment (6 to 9 weeks), untreated forearm still loose and relatively thin): more firm, smooth and plump when lifted
- increase in skin thickness of treated forearm ([1]; 10% solution twice daily, person one, after 4 weeks, untreated forearm no change): 8%
- increase in skin thickness of treated forearm ([1]; 10% solution twice daily, person one, after 6 weeks, untreated forearm no change): 23%
- increase in skin thickness of treated forearm ([1]; 10% solution twice daily, person one, after 9 weeks, untreated forearm no change): 28%
- increase in skin thickness of treated forearm ([1]; 10% solution twice daily, person two, after 4 weeks, untreated forearm no change): 13%
- increase in skin thickness of treated forearm ([1]; 10% solution twice daily, person two, after 6 weeks): 27%
- increase in skin thickness of treated forearm ([1]; 10% solution twice daily, person, after 5 weeks, untreated forearm no change): 19%
- increase in skin thickness of treated forearm ([1]; 10% solution twice daily, person, after 8 weeks): 33%

Compound: O=C(O)C(O)CO (stereo not drawn) [glyceric acid, 2,3-dihydroxypropanoic acid]
- lips plumpness [2, 7]: more plump
- plumping of skin [2, 7]: plumping of skin was detectable
- skin of the upper arms appearance [2, 7]: diminished crepe paper appearance
- upper eyelids droop and fullness [2, 7]: diminished droop and enhanced fullness

Compound: O=C1O[C@H]([C@H](O)CO)C(O)=C1O [isoascorbic acid, D-erythro-hex-2-enonic acidr-lactone]
- antioxidant properties based on the screen tests [3, 8]: antioxidant substances

Compound: O=C(O)CC(C(=O)O)C(O)C(=O)O (stereo not drawn) [isocitric acid]
- antioxidant properties based on the screen tests [3]: antioxidant substances

Compound: CC(C)(O)C(=O)O [Methyllactic Acid, 2-methyl-2-hydroxypropanoic acid]
- % Increase Over (summary of increased skin thickness) [1]: 14-20%

Compound: O=C(O)[C@H](O)[C@@H](O)[C@H](O[C@@H]1O[C@H](CO)[C@H](O)[C@H](O)[C@H]1O)[C@H](O)CO [Maltobionic acid, maltobionic acid]
- skin fullness and plumping ([2]; 20% solution twice daily applied prior to continued glyceric acid 14% cream, same subject, after five weeks): marked enhancement of skin fullness and plumping

Compound: CC(=O)N[C@@H](CS)C(=O)O [N-Acetyl-L-cysteine]
- antioxidant properties based on the screen tests [3, 8]: antioxidant substances

Compound: O=C(O)C(O)c1ccccc1 (racemic) [DL-Mandelic Acid, 2-henyl-2-hydroxyethanoic acid]
- % Increase Over (summary of increased skin thickness) [1]: 22-27%
- % Increase Over Control (skin thickness) ([1]; 30% solution, twice daily on forearm skin, 4 months, control = opposite forearm, one subject): 22% and 27%

Compound: O=C1O[C@H](CO)[C@@H](O)[C@H](O)[C@H]1O [D-Gluconolactone]
- size of treated right breast ([4]; 15% lotion twice daily, person, after 6 weeks, untreated left breast no change): noticeable increase in the size of their right breast
- plumpness and firmness of treated right breast compared to left breast ([4]; 15% lotion twice daily, person, at the end of 3 months): increased in plumpness and firmness
- plumpness and firmness of both breasts ([4]; 15% lotion, both breasts treated, at the end of another 3 months (6 month treatment period)): substantially increased in plumpness and firmness
- % Increase Over (summary of increased skin thickness) [1]: 7-19%

Compound: O=C(O)[C@H](O)[C@@H](O)[C@H](O[C@@H]1O[C@H](CO)[C@H](O)[C@H](O)[C@H]1O)[C@H](O)CO [Lactobionic Acid, lactobionic acid]
- antioxidant property by anthralin and hydroquinone test methods [3]: moderate antioxidant
- color of fresh banana peels ([5]; after 72 hours, control in water dark tan at 24 to 72 hours): changed in color to tan
- color of fresh banana peels ([5]; period of 24 hours, control in water tan within 6 hours): remained white-yellowish
- glans penile augmentation and foreskin thickness (in words) [6]: glans penile augmentation had occurred, as well as increased thickness of foreskin
- % Increase Over (summary of increased skin thickness) [1]: 5-58%
- % Increase Over Control (%) (skin thickness) ([1]; Conc. 8%, twice daily on forearm skin, 3 months, control = opposite forearm, subject): 26%
- % Increase Over Control (%) (skin thickness) ([1]; Conc. 20%, twice daily on forearm skin, 4 months, control = opposite forearm, subject): 10%

Compound: O=C(O)c1ccccc1O [Salicylic Acid, 2-hydroxybenzoic acid, reference compound]
- effect on skin plumpness or thickness (in words) ([1]; topical application on forearm skin): decreased instead of increasing skin thickness

Compound: O=C(O)CC(O)C(=O)O (stereo not drawn) [malic acid, 2-hydroxybutane-1,4-dioic acid]
- antioxidant properties based on the screen tests [3, 8]: antioxidant substances

Compound: O=C(O)CO [Glycolic Acid, 2-hydroxyethanoic acid]
- % Increase Over (summary of increased skin thickness) [1]: 11-43%

Compound: CC1(C)COC(=O)C1O (stereo not drawn) [pantolactone]
- antioxidant properties based on the screen tests [3, 8]: antioxidant substances

Compound: CC(=O)NC1CCSC1=O (racemic) [N-Acetyl-DL-homocysteine Thiolactone]
- % Increase Over Control (%) (skin thickness) ([1]; 5% lotion, twice daily on forearm skin, 3 weeks, control = opposite forearm, one subject): 13% and 65%

Compound: CC(O)C(=O)O (racemic) [DL-Lactic Acid, 2-hydroxypropanoic acid]
- % Increase Over (summary of increased skin thickness) [1]: 17-42%
